Source: patent publication US20040043980A1, “Stable compositions of oxapenem-3-carboxylic acids by co-lyophilisation with pharmaceutical carriers” (priority 2000, published 2004)

Columns and labels:
Conditions in all cases: 42 days
[1] = Shelf stability: appearance of the lyophilized powder; assay type: physicochemical
Description: (§1) Several samples in glass ampoules were kept without and over drying agents for 42 days in the dark at room temperature. The content of (5R,6R,1′R)-3-(4-amino-1,1-dimethylbutyl)-6-(1′-hydroxyethyl)-7-oxo-4-1-azabicyclo[3.2.0]hept-2-ene-2-carboxylic acid was determined by UV spectroscopy in water at λmax=262 nm (ε=5000) and by plate bioassay. The appearance of the lyophilized powder and the solubility behaviour in water were also recorded.

[2] = tested on: Escherichia coli; assay: Shelf stability: content by plate bioassay; assay type: cell-based; parameters: unit not given here
Description: as §1, with “Several samples in glass ampoules were kept without and over drying agents for 42 days in the dark at room temperature.” left out
The plate bioassays were carried out in sterile polystyrene dishes of 8.5 cm diameter with 10 ml of sterile Difco Nutrient Agar using Escherichia coli (inocculum ca. 10 000 cells). The inhibition diameters were compared with those obtained with 30, 25, 20, 15, 10 and 5 μg of pure title compound on a separate dish and the amount of active material calculated.

[3] = Shelf stability: content determined by UV spectroscopy in water at 262 nm; assay type: physicochemical; parameters: unit not given here
Description: as §1

[4] = R.T., vacuum, drying agent P2O5

appearance ([1]; R.T., drying agent SiO2): yellow
appearance ([1]; R.T., drying agent none): yellow
appearance [1, 4]: yellow
appearance ([1]; −80° C., drying agent none): white
content by bioassay ([2]; R.T., drying agent SiO2): 66
content by bioassay ([2]; R.T., drying agent none): 40
content by bioassay [2, 4]: 83
content by bioassay ([2]; −80° C., drying agent none): 100
content by UV method ([3]; R.T., drying agent SiO2): 82
content by UV method ([3]; R.T., drying agent none): 67
content by UV method [3, 4]: 76
content by UV method ([3]; −80° C., drying agent none): 100
SMILES: C[C@@H](O)[C@H]1C(=O)N2C(C(=O)O)=C(C(C)(C)CCCN)O[C@H]12 [neat, (5R,6R,1′R)-3-(4-amino-1,1-dimethylbutyl)-6-(1′-hydroxyethyl)-7-oxo-4-oxa-1-azabicyclo[3.2.0]hept-2-ene-2-carboxylic acid]
